# Assays:
# E. coli = experiment: Fluctuation assay of mutation rate with sub-inhibitory antibiotic doses; format: cell-based, Escherichia coli
# From the text: The effect of sub-inhibitory doses of antibiotics of different classes on mutation rate was investigated using both MDS and detailed fluctuation assays as performed in Garibyan, L. et al. (2003). DNA Repair. 2(5):593-608; and Lang, G. I.; et al. (2008). Genetics 178(1):67-82.
# [1] = tested on: MG1655 E. coli (rpoB and mrcA regions of interest); experiment: Maximum-Depth Sequencing (MDS) of mutation rates in E. coli grown with sub-inhibitory antibiotic doses; format: cell-based, Escherichia coli; settings: for rate of transition mutations in rpoB: wild-type MG1655, aerobic, 1 μL/mL ampicillin or 15 ng/mL norfloxacin
# Method: E. coli were streaked onto Luria-Bertani (LB) Agar from freezer stocks and grown at 30° C. for 24 hours. According to plating and colony-forming unit (CFU) counting, the average number of cells in such colonies is 3×10^8 (thus the number of generations is […]. Bacteria from a single colony were used to inoculate a small liquid culture (1 ml LB broth in a round-bottom tube). For the purposes of generation counting, it is assumed that after the transition to growing in liquid, growth occurs for only ˜3 generations, since the number of bacteria in the colony is roughly equal to the carrying capacity of the broth. The culture was grown for 12 hours on a 37° C. shaker.
# 4 μL (˜10^7 bacteria) were transferred to a fresh 100 mL LB liquid culture (in a 250 mL Erlenmeyer flask). Liquid cultures were grown for 24 hours on a 37° C. shaker, to a density of 2.5×10^9 bacteria according to cell counts (for a total of 2.5×10^11 bacteria). This process was performed 9 times. The average number of generations a bacterium would have grown in each liquid culture is
# Four biological replicates of each condition were grown. All liquid cultures, including the small founding culture, had the possible addition of 1 μL/mL ampicillin or 15 ng/mL norfloxacin. […] The fact that most of the “interrelatedness” between bacteria sampled at the end of the culture is important for the way mutation rate is calculated.
# MG1655 E. coli were used as wild-type cells for all experiments. The tet-regulated mrcA strain MG1655(CmR::Ptet-mrcA SpR::tetR) was prepared according to Lutz, R.; Bujard, H. (1997) Independent and tight regulation of transcriptional units in Escherichia coli via the LacR/O and the TetR/O and AraC/I1-I2 regulatory elements. Nucleic Acids Research. 25(6):1203-10. […] PNAS 111(20):E2100-E2109, doi: 10.1073/pnas.1201876111. Mutant strains were induced with anhydrous tetracycline at 50 ng/ml. In the mutS knockout strain, MG1655 mutS was replaced with a kanamycin resistance cassette.
# 0. Restriction digest. a. Incubate 1 μg DNA in 50 μL 1× restriction enzyme buffer with the appropriate amount of restriction enzyme. For this study, 1 unit XmnI was used. Samples were incubated at 37° C. overnight. b. Deactivate restriction enzyme. For XmnI, samples were heated at 65° C. for 20 minutes. 1. 1 cycle PCR with adapter-barcode-primer a. Prepare 50 μL PCR reaction mix using adapter-barcode-primer and 12.5 μL of the sample above (250 ng DNA) b. PCR, 1 cycle: 98° C. 1 min, 60° C. 15 sec, 72° C. 1 min 2. Remove unused barcodes a. Immediately add 1 μL exonuclease I+5 μL buffer. b. Incubate at 37° C. for 1 hr, then 80° C. for 20 min c. Clean sample using PCR purification kit 3. Linear amplification using forward adapter amplifier primers a. Add cleaned DNA to fresh 50 μL reaction mix with forward adapter amplifier primer. b. PCR, 12 cycles: 98° C. 15 sec, 61° C. 15 sec, 72° C. 5 sec Note: The number of linear amplification cycles is limited by off-target amplification.
# a. Add adapter-reverse-primer and reverse adapter amplifier primers. b. PCR, 15 cycles: 98° C. 15 sec, 61° C. 15 sec, 72° C. 5 sec 5. Purify with Ampure XP beads Optional: If using multiple samples with phased barcodes, combine DNA first in equimolar concentrations. For this study, quantification at this step was done using TapeStation. 6. Sequence. HiSeq Rapid Run, 150 bp, Paired-End.
# After grouping by barcode, sequences were aligned using the forward and reverse [primer] sequences for mrcA and rpoB above. Samples were indexed according to phase. Consensus bases, including indels, are called only when all bases at a given position and barcode have 100% agreement.
# Mutation rates in the assay are chosen to maximize the likelihood of recovering the mean mutant frequency for substitutions of a given type X->Y, which occur a Poisson process over a certain number of generations (in this case 113). […]
SMILES,"transition substitution rate in rpoB, fluctuation assays (E. coli)","rate of >1 bp indel formation in both mrcA and rpoB ([1]; MDS, 15 ng/mL norfloxacin)",rate of transition mutations in rpoB ([1]; MDS),"mutation rate in cells overexpressing catalase ([1]; MDS, catalase overexpression mutant, lower basal rate)","transversions and indel formation in mrcA ([1]; MDS, mrcA)","transition rate, anaerobic conditions ([1]; cells grown in anaerobic conditions)"
CCn1cc(C(=O)O)c(=O)c2cc(F)c(N3CCNCC3)cc21 [norfloxacin],this increase was only seen in cells that were grown to stationary phase,increased the rate of >1 bp indel formation in both mrcA and rpoB,increased the transition substitution rate in rpoB,,,
CC1(C)S[C@@H]2[C@H](NC(=O)[C@H](N)c3ccccc3)C(=O)N2[C@H]1C(=O)O [ampicillin],,,increase in the rate of transition mutations in rpoB,did not increase this lower rate,increased transversions and indel formation in mrcA,did not display an increase in transition rate

# Reference: patent US20170016062A1, “SEQUENCING METHODS AND KITS” (NEW YORK UNIVERSITY, priority 2015, published 2017)
